Results on 13 molecules are retold here after ChEMBL document CHEMBL5150053, “Carboxymethyl tethered poly(disubstituted)triazoles built on nucleoside skeletons: A unique class of ribonuclease A inhibitors designed using chemical logic” (Bioorg Med Chem, 2022).

Active and inactive are the calls of the source. The rule behind the calls is not given here.

For assay [1], the species on record is Bos taurus. Description: Inhibition of bovine pancreatic RNase A using tRNA as substrate assessed as substrate degradation preincubated with compound for 3 hrs followed by substrate addition and measured after 30 mins by ethidium bromide staining based agarose gel electrophoresis analysis. Conditions: time 3.5 hrs.
A short description of assay [2]: Competitive inhibition of bovine pancreatic RNase A using 2',3'-cCMP as substrate assessed as inhibition constant by spectrophotometric analysis. Further details: species or system Bos taurus.
A short description of assay [3]: Hyperbolic partial competitive inhibition of bovine pancreatic RNase A using 2',3'-cCMP as substrate assessed as inhibition constant by spectrophotometric analysis. Further details: species or system Bos taurus.
The nature of assay [4]: Uncompetitive inhibition of bovine pancreatic RNase A using 2',3'-cCMP as substrate assessed as inhibition constant by spectrophotometric analysis. Further details: species or system Bos taurus.
Assay [5] is filed under the species Bos taurus. Nature of the assay: Uncompetitive inhibition of bovine pancreatic RNase A using 2',3'-cCMP as substrate assessed as Michaelis-Menten constant (Km) by Lineweaver-burk plot analysis (reference value: 9.35 x 10^-4 M).
Assay [6] can be described thus: Competitive reversible inhibition of bovine pancreatic RNase A using 2',3'-cCMP as substrate assessed as inhibition constant by spectrophotometric analysis. Further details: species or system Bos taurus.
The nature of assay [7]: Linear mixed type inhibition of bovine pancreatic RNase A using 2',3'-cCMP as substrate assessed as inhibition constant by spectrophotometric analysis. Also on record: species or system Bos taurus.

For the molecule `O=C(O)Cn1cc(COC[C@H]2O[C@@H](n3ccc(=O)n(Cc4cn(CC(=O)O)nn4)c3=O)[C@H](O)[C@@H]2O)nn1`, the inhibition result in the assay listed under Bos taurus [1] was “Active”. The Ki in assay [2] was 198 µM.
In the case of `Cc1cn([C@H]2C[C@H](OCc3cn(CC(=O)O)nn3)[C@@H](COCc3cn(CC(=O)O)nn3)O2)c(=O)n(Cc2cn(CC(=O)O)nn2)c1=O`, the inhibition result in the assay filed under Bos taurus [1] is “Active”. Besides, the Ki in assay [3] is 2.3 µM.
For the molecule `Cc1cn([C@H]2C[C@H](O)[C@@H](CO)O2)c(=O)n(Cc2cn(CC(=O)O)nn2)c1=O`, the inhibition entry in the assay listed under Bos taurus [1] is “Active”. For the same molecule, in assay [4], the Ki worked out at 232 µM. The Km in the assay filed under Bos taurus [5] came to 585 µM.
For the molecule `O=S(=O)(O)CCn1cc(CO[C@@H]2O[C@H](Cn3cc(CS(=O)(=O)O)nn3)[C@@H](O)[C@H]2O)nn1`, the inhibition constant Ki in assay [6] worked out at 29 µM.
Still for that read-out and setting: next, `Cc1cn([C@H]2C[C@H](S(=O)(=O)O)[C@@H](CO)O2)c(=O)[nH]c1=O`: 2.08 µM; `O=c1ccn([C@@H]2O[C@H](CO)[C@@H](S(=O)(=O)O)[C@@H]2O)c(=O)[nH]1`: 0.96 µM.
As to `O=C(O)Cn1cc(Cn2c(=O)ccn([C@@H]3O[C@H](CO)[C@@H](O)[C@H]3O)c2=O)nn1`, the inhibition entry in the assay filed under Bos taurus [1] was “Active”. For the same molecule, the inhibitory constant (Ki) in assay [2] turned out to be 55.4 µM.
Consider `Cc1cn([C@H]2C[C@H](OCc3cn(CC(=O)O)nn3)[C@@H](CO)O2)c(=O)n(Cc2cn(CC(=O)O)nn2)c1=O`, for which, in the assay filed under Bos taurus [1], the inhibition result is “Active”. Also, the Ki in assay [2] came to 352 µM.
Regarding `O=C(O)c1nnn(C[C@H]2O[C@@H](OCc3cn(CCS(=O)(=O)O)nn3)[C@H](O)[C@@H]2O)c1C(=O)O`, in assay [6], the Ki was 46 µM.
Consider `Cc1cn([C@H]2C[C@H](OCc3cn(CC(=O)O)nn3)[C@@H](COCc3cn(CC(=O)O)nn3)O2)c(=O)[nH]c1=O`, for which the inhibition entry in the assay filed under Bos taurus [1] was “Active”. Further, the inhibition constant (Ki) in assay [7] was determined as 211 µM.
Consider `O=C(O)Cn1cc(COC[C@H]2O[C@@H](n3ccc(=O)n(Cc4cn(CC(=O)O)nn4)c3=O)[C@H](OCc3cn(CC(=O)O)nn3)[C@@H]2OCc2cn(CC(=O)O)nn2)nn1`, for which the inhibition entry in the assay filed under Bos taurus [1] was “Active”. In assay [2], the Ki came to 74.1 µM.
Take `O=C(O)CS(=O)(=O)[C@H]1[C@@H](O)[C@H](n2ccc(=O)[nH]c2=O)O[C@@H]1CO`: the Ki in assay [6] stood at 2 µM.
Still for that read-out and setting: next, `Nc1ccn([C@@H]2O[C@H](CO)[C@@H](S(=O)(=O)CC(=O)O)[C@H]2O)c(=O)n1`: 1.75 µM.
